According to PubChem BioAssay (NCI):
“And” between values parts separate entries of the source, which are not always exact repeats. Identical values can stand only once.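 Dose response: 5 concentrations. Exposure: 48 h. Format: 96-well plates. Endpoint: linear interpolation; highest concentration if not reached. The concentration for 50% growth inhibition is given as GI50. The concentration for full growth arrest is given as TGI.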

What was measured:
Assay in all cases: growth of human tumour cells (NCI), 48 h
A549 NSCLC = test system: A549 NSCLC
CAKI-1 renal = test system: CAKI-1 renal
HCC-2998 colon = test system: HCC-2998 colon
HT29 colon = test system: HT29 colon
NCI-H460 lung = test system: NCI-H460 lung
OVCAR-3 ovarian = test system: OVCAR-3 ovarian
SK-MEL-2 melanoma = test system: SK-MEL-2 melanoma
SK-OV-3 ovarian = test system: SK-OV-3 ovarian
SN12C renal = test system: SN12C renal
UACC-257 melanoma = test system: UACC-257 melanoma

SMILES | GI50 (A549 NSCLC) | TGI (A549 NSCLC) | GI50 (CAKI-1 renal) | TGI (CAKI-1 renal) | GI50 (HCC-2998 colon) | TGI (HCC-2998 colon) | GI50 (HT29 colon) | TGI (HT29 colon) | GI50 (NCI-H460 lung) | TGI (NCI-H460 lung) | GI50 (OVCAR-3 ovarian) | TGI (OVCAR-3 ovarian) | GI50 (SK-MEL-2 melanoma) | TGI (SK-MEL-2 melanoma) | GI50 (SK-OV-3 ovarian) | TGI (SK-OV-3 ovarian) | GI50 (SN12C renal) | TGI (SN12C renal) | GI50 (UACC-257 melanoma) | TGI (UACC-257 melanoma)
COc1ccc2c(Oc3ccc(NC(=O)c4c(C)n(CC(C)(C)O)n(-c5ccccc5)c4=O)nc3)ccnc2c1 | 20.3 µM | > 100 µM | 3.33 µM | > 27.7 µM | 34 µM | > 100 µM | 21.6 µM | > 91.1 µM | 13.6 µM | > 100 µM | 19.5 µM | 70.6 µM | 13.3 µM | 49.4 µM | 6.06 µM | > 80.8 µM | 4.94 µM | > 100 µM | 16.6 µM | > 100 µM
O=C(N/N=C/c1c(Cl)cccc1Cl)c1ccc(C(F)(F)F)nc1Nc1cccc(C(F)(F)F)c1 | 1.54 µM | > 36.1 µM | 1.03 µM | 13.8 µM | 3.97 µM | > 100 µM | 1.24 µM | > 100 µM | 0.419 µM | 6.13 µM | 0.284 µM | 6.47 µM | 1.87 µM | 8.19 µM | 1.69 µM | 6.3 µM | 0.912 µM | 20.8 µM | 1.02 µM | > 100 µM
Cn1c(=O)c2c(ncn2CC(=O)Nc2ccc(-c3ccccc3)nn2)n(C)c1=O | > 100 µM | > 100 µM | > 100 µM | > 100 µM | > 100 µM | > 100 µM | > 100 µM | > 100 µM | > 100 µM | > 100 µM | > 100 µM | > 100 µM | > 100 µM | > 100 µM | > 100 µM | > 100 µM | > 100 µM | > 100 µM | > 100 µM | > 100 µM
CN1CCN(c2ccc(Nc3ncc4cc(C#N)c(=O)n(C5CCCC5)c4n3)cc2)CC1 | 2.05 µM | > 100 µM | 0.346 µM | 17.3 µM | 2.8 µM | > 100 µM | 0.6 µM | > 100 µM | 0.64 µM | > 49.3 µM | 2.94 µM | > 24.2 µM | 4.87 µM | > 62.8 µM | 4.41 µM | > 100 µM | 0.917 µM | 15.5 µM | 4.02 µM | > 100 µM
O=c1[nH]c(=O)n([C@H]2CCCO2)cc1F | 625 µM | > 5000 µM | 2100 µM | > 5000 µM | 1010 µM | > 3020 µM | 1370 µM | > 5000 µM | 291 µM | 830 µM and > 3640 µM | 1650 µM | > 5000 µM | 1950 µM | > 5000 µM | > 3620 µM | 984 µM and > 5000 µM | 1910 µM | > 5000 µM | 3540 µM | > 5000 µM
COc1ccc2c(c1)C(C)Cc1c(ncnc1-n1cnc3cc(C)ccc31)N2C (stereo not given) | 0.254 µM | 12.6 µM | 0.0604 µM | 12.6 µM | 0.329 µM | 13.3 µM | 0.174 µM | 0.611 µM | 0.128 µM | 10.3 µM | 0.151 µM | 14.1 µM | 0.187 µM | 13.4 µM | 0.0591 µM | 11.7 µM | 0.38 µM | 20.5 µM | 0.158 µM | 20.8 µM
C[C@]12CC[C@@H]3c4ccc(O)c([N+](=O)[O-])c4CC[C@H]3[C@@H]1CC[C@@H]2NS(=O)(=O)c1cccc(Br)c1 | 2.81 µM | 8.89 µM | 2.36 µM | 5.43 µM | 2.06 µM | 3.97 µM | 1.94 µM | 3.92 µM | 1.81 µM | 3.56 µM | 2.43 µM | 5.64 µM | 2.35 µM | 5.34 µM | 2.94 µM | 7.53 µM | 1.72 µM | 3.54 µM | 2.1 µM | 5.04 µM
CCOc1ccccc1NC(=O)C(C#N)C1=C(Cl)C(=O)c2ccccc2C1=O (stereo not given) | – | 3.74 µM | 1.81 µM | 5 µM and 3.29 µM | 12.3 µM | 3.15 µM and 25.6 µM | 14 µM | – | 3.45 µM | 3.27 µM and 15.1 µM | 2 µM | 2.97 µM and 5.04 µM | – | 3.05 µM and 3.12 µM | – | 41.5 µM | – | 3.19 µM and 3.53 µM | 2.22 µM | 2.25 µM and 6.7 µM
COC(=O)c1cc(/C=C/c2ccc(S(N)(=O)=O)cc2)ccc1O | 29.6 µM | > 100 µM | 28.6 µM | > 100 µM | 18 µM | 39.7 µM | 64.5 µM | > 100 µM | 27.5 µM | 66.4 µM | 16.5 µM | 62.7 µM | 66.8 µM | > 100 µM | > 100 µM | > 100 µM | 29.3 µM | 89.9 µM | 59.6 µM | > 100 µM
C/C(=N\NC(=S)N1CC2CCC(CC2)C1)c1ccccn1 | 0.064 µM | 1.66 µM | 0.27 µM | 3.89 µM | 0.171 µM | 1.8 µM | < 0.014 µM | 1.67 µM | 0.044 µM | 1.37 µM | < 0.0141 µM | 0.29 µM | 0.419 µM | 1.99 µM | 0.0465 µM | 1.01 µM | 0.228 µM | 2.03 µM | 0.0214 µM | 0.357 µM
CC1=C(C(=O)NNS(=O)(=O)c2ccc(C)cc2)CC(C(=O)NNS(=O)(=O)c2ccc(C)cc2)=C(C)N1 | – | > 100 µM | – | > 100 µM | – | > 100 µM | – | > 100 µM | – | > 100 µM | – | > 100 µM | – | > 100 µM | – | > 100 µM | – | > 100 µM | – | > 100 µM
O=C(O)CSc1n[nH]c(Cc2ccccc2)n1 | – | > 100 µM | – | > 100 µM | – | > 100 µM | – | > 100 µM | – | > 100 µM | – | > 100 µM | – | > 100 µM | – | > 100 µM | – | > 100 µM | – | > 100 µM
